Tested on: voltage-dependent calcium channels (cerebral cortex synaptosome)
Experiment: Measurement of voltage-dependent calcium channel activity by the use of a fluorescent pigment (fura 2)
Assay type: cell-based
Conditions: rat cerebral cortex synaptosome, fura 2, KCl stimulation, compound incubated 10 minutes
Protocol: Measurement of Voltage-dependent Calcium Channel Activity by the use of a Fluorescent Pigment (fura 2)
Cerebral cortexes were removed from cut rat brains and disrupted roughly with scissors. These were introduced into a homogenizer, homogenized in 0.3 M saccharose and centrifuged at 4° C. (1,500 g×10 min). The resulting supernatant was further centrifuged at 4° C. (10,000 g×20 min). The resulting precipitates were suspended in 0.3 M saccharose. The suspension was layered on 0.8 M saccharose and centrifuged (10,000 g×30 min.).
4 μM fura 2/AM (Dojin Ltd.) was suspended in solution A to prepare a loading solution. To the synaptosome solution prepared in the method described above was added an equal volume of the loading solution, and the mixture was incubated for 40 minutes at room temperature.
As comparative and control compound, verapamil hydrochloride was used.

IC50	Structure (SMILES)
7.4 µM	CC(C)C(C#N)(CCCN1CCN(CCC(=O)Nc2ccc(F)cc2)CC1)c1ccccc1 (stereo not drawn) [Example 63, 1-[(4-Cyano-5-methyl-4-phenyl)hexyl]-4-[2-(4-fluorophenylaminocarbonyl)ethyl]piperazine]
> 16 µM	CC(C)C(C#N)(CCCN1CCN(CC(=O)Nc2ccc(F)cc2)CC1)c1ccccc1 (stereo not drawn) [Example 65, 1-[(4-Cyano-5-methyl-4-phenyl)hexyl]-4-[N-(4-fluorophenyl)carbamoylmethyl]piperazine]
8.2 µM	CC(C)C(C#N)(CCCN1CCN(CCNS(=O)(=O)c2ccc(F)cc2)CC1)c1ccccc1 (stereo not drawn) [Example 66, 1-[(4-Cyano-5-methyl-4-phenyl)hexyl]-4-[2-(4-fluorobenzenesulfonylamino)ethyl]piperazine]
10 µM	CC(C)C(C#N)(CCCN1CCN(CCS(=O)(=O)Nc2ccc(F)cc2)CC1)c1ccccc1 (stereo not drawn) [Example 67, 1-[(4-Cyano-5-methyl-4-phenyl)hexyl]-4-{2-[N-(4-fluorophenyl)sulfamoyl]ethyl}piperazine]
8.7 µM	CC(C)C(C#N)(CCCN1CCN(CCS(=O)(=O)N(C)c2ccc(F)cc2)CC1)c1ccccc1 (stereo not drawn) [Example 68, 1-[(4-Cyano-5-methyl-4-phenyl)hexyl]-4-{2-[N-(4-fluorophenyl)-N-methylsulfamoyl]ethyl}piperazine]
9.2 µM	CC(C)C(C#N)(CCCN1CCN(CCN(C)S(=O)(=O)c2ccc(F)cc2)CC1)c1ccccc1 (stereo not drawn) [Example 69, 1-[(4-cyano-5-methyl-4-phenyl)hexyl]-4-[2-(N-methyl-4-fluorobenzenesulfonylamino)ethyl]piperazine]
3.8 µM	CC(C)C(C#N)(CCCN1CCN(CCOC(=O)Sc2ccc(F)cc2)CC1)c1ccccc1 (stereo not drawn) [Example 70, 1-[(4-Cyano-5-methyl-4-phenyl)hexyl]-4-{2-[(4-fluorophenylthio)carbonyloxyl]ethyl}piperazine]
> 16 µM	CC(C)C(C#N)(CCCN1CCN(CCOc2ccccn2)CC1)c1ccccc1 (stereo not drawn) [Example 71, 1-[(4-Cyano-5-methyl-4-phenyl)hexyl]-4-[2-(2-pyridyloxy)ethyl]piperazine]
> 16 µM	CC(C)(O)C(C#N)(CCCN1CCN(CCOc2ccc(F)cc2)CC1)c1ccccc1 (stereo not drawn) [Example 81, 1-[(4-Cyano-5-hydroxy-5-methyl-4-phenyl)hexyl]-4-[2-(4-fluorophenoxyl)ethyl]piperazine]
5 µM	C=C(C)C(C#N)(CCCN1CCN(CCOc2ccc(F)cc2)CC1)c1ccccc1 (stereo not drawn) [Example 82, 1-[5-(4-Cyano-5-methyl-4-phenyl)hexenyl]-4-[2-(4-fluorophenoxyl)ethyl]piperazine]
13 µM	CC(C)C(C#N)(CCCN1CCN(CCOc2ccc(F)cc2)CC1)c1ccc(O)cc1 (stereo not drawn) [Example 83, 1-[4-Cyano-5-methyl-4-(4-hydroxyphenyl)hexyl]-4-[2-(4-fluorophenoxy)ethyl]piperazine]
6 µM	CC(C)C(C#N)(CCCN1CCN(CCOc2ccc(F)cc2O)CC1)c1ccccc1 (stereo not drawn) [Example 84, 1-[(4-Cyano-5-methyl-4-phenyl)hexyl]-4-[2-(2-hydroxy-4-fluorophenoxy)ethyl]piperazine]
16 µM	N#CC(F)(CCCN1CCN(CCOc2ccc(F)cc2)CC1)c1ccccc1 (stereo not drawn) [Example 85, 1-[(4-Cyano-4-fluoro-4-phenyl)butyl]-4-[2-(4-fluorophenoxy)ethyl]piperazine]
4.3 µM	CCOC(=O)COc1cc(F)ccc1OCCN1CCN(CCCC(C#N)(c2ccccc2)C(C)C)CC1 (stereo not drawn) [Example 86, 1-[(4-Cyano-5-methyl-4-phenyl)hexyl]-4-[2 (2-ethoxycarbonylmethoxy-4-fluorophenoxy)ethyl]piperazine]
> 16 µM	CC(C)C(C#N)(CCCN1CCN(CCOc2ccc(F)cc2OCCO)CC1)c1ccccc1 (stereo not drawn) [Example 87, 1-[(4-Cyano-5-methyl-4-phenyl)hexyl]-4-[2-(2-hydroxyethoxy-4-fluorophenoxy)ethyl]piperazine]
4.9 µM	COc1cc(F)ccc1OCCN1CCN(CCCC(C#N)(c2ccccc2)C(C)C)CC1 (stereo not drawn) [Example 88, 1-[(4-Cyano-5-methyl-4-phenyl)hexyl]-4-[2-(2-methoxy-4-fluorophenoxy)ethyl]piperazine]
2.7 µM	CC(C)N(CCN1CCN(CCCC(C#N)(c2ccccc2)C(C)C)CC1)c1ccccc1 (stereo not drawn) [Example 89, 1-[(4-Cyano-5-methyl-4-phenyl)hexyl]-4-[2-(N-isopropylanilino)ethyl]piperazine]
2.6 µM	CC(C)C(C#N)(CCCN1CCN(CCN(c2ccccc2)C2CCCCC2)CC1)c1ccccc1 (stereo not drawn) [Example 90, 1-[(4-Cyano-5-methyl-4-phenyl)hexyl]-4-[2-(N-cyclohexylanilino)ethyl]piperazine]
2.1 µM	CC(C)c1ccc(N(C)CCN2CCN(CCCC(C#N)(c3ccccc3)C(C)C)CC2)cc1 (stereo not drawn) [Example 91, 1-[(4-Cyano-5-methyl-4-phenyl)hexyl]-4-{2-[N-methyl(4-isopropylanilino)ethyl]}piperazine]
1.8 µM	CC(C)c1cccc(N(C)CCN2CCN(CCCC(C#N)(c3ccccc3)C(C)C)CC2)c1 (stereo not drawn) [Example 92, 1-[(4-Cyano-5-methyl-4-phenyl)hexyl]-4-{2-[N-methyl(3-Isopropylanilino)ethyl]}piperazine]

IC50	Structure (SMILES)
2.4 µM	CC(C)c1ccccc1N(C)CCN1CCN(CCCC(C#N)(c2ccccc2)C(C)C)CC1 (stereo not drawn) [Example 93, 1-[(4-Cyano-5-methyl-4-phenyl)hexyl]-4-{2-[N-methyl(2-Isopropylanilino)ethyl]}piperazine]
6.1 µM	CC(C)C(C#N)(CCCN1CCN(CCOc2ccc3c(c2)OCO3)CC1)c1ccccc1 (stereo not drawn) [Example 94, 1-[(4-Cyano-5-methyl-4-phenyl)hexyl]-4-{2-[3,4-(methylenedioxy)phenoxy]ethyl}piperazine]
11 µM	CC(C)C(C#N)(CCCN1CCN(CCOc2ccc3ncccc3c2)CC1)c1ccccc1 (stereo not drawn) [Example 95, 1-[(4-Cyano-5-methyl-4-phenyl)hexyl]-4-[2-(6-quinolyloxy)ethyl]piperazine]
5.4 µM	CC(C)C(C#N)(CCCN1CCN(CCOc2cccc3cnccc23)CC1)c1ccccc1 (stereo not drawn) [Example 96, 1-[(4-Cyano-5-methyl-4-phenyl)hexyl]-4-[2-(5-isoquinolyloxy)ethyl]piperazine]
3.9 µM	CC(CCC(C#N)(c1ccccc1)C(C)C)N1CCN(CCOc2ccc(F)cc2)CC1 (stereo not drawn) [Example 97, 1-[{2-(5-Cyano-6-methyl-5-phenyl)heptyl}]-4-[2-(4-fluorophenoxy)ethyl]piperazine]
> 16 µM	CCCC(CCC(C#N)(c1ccccc1)C(C)C)N1CCN(CCOc2ccc(F)cc2)CC1 (stereo not drawn) [Example 98, 1-{[4-(7-Cyano-8-methyl-7-phenyl)nonyl]}-4-[2-(4-fluorophenoxy)ethyl]piperazine]
> 16 µM	CC(C)C(C#N)(CCCN1CCN(CCOc2ccncc2)CC1)c1ccccc1 (stereo not drawn) [Example 99, 1-[(4-Cyano-5-methyl-4-phenyl)hexyl]-4-[2-(4-pyridyloxy)ethyl]piperazine]
> 16 µM	CC(C)C(C#N)(CCCN1CCN(CCOc2cccnc2)CC1)c1ccccc1 (stereo not drawn) [Example 100, 1-[(4-Cyano-5-methyl-4-phenyl)hexyl]-4-[2-(3-pyridyloxy)ethyl]piperazine]
9.2 µM	CC(C)C(C#N)(CCCN1CCN(CCOc2cccc3ncccc23)CC1)c1ccccc1 (stereo not drawn) [Example 101, 1-[(4-Cyano-5-methyl-4-phenyl)hexyl]-4-[2-(5-quinolyloxy)ethyl]piperazine]
2.7 µM	CC(C)C(C#N)(CCCN1CCN(CCOc2ccc(C(F)(F)F)cc2)CC1)c1ccccc1 (stereo not drawn) [Example 102, 1-[(4-Cyano-5-methyl-4-phenyl)hexyl]-4-[2-(4-trifluoromethylphenoxy)ethyl]piperazine]
2.5 µM	CC(C)C(C#N)(CCCN1CCN(CCOc2cccc3ccccc23)CC1)c1ccccc1 (stereo not drawn) [Example 103, 1-[(4-Cyano-5-methyl-4-phenyl)hexyl]-4-[2-(1-naphthyloxy)ethyl]piperazine]
2.2 µM	CCC(CN1CCN(CCCC(C#N)(c2ccccc2)C(C)C)CC1)Oc1ccc(F)cc1 (stereo not drawn) [Example 104, 1-[(4-Cyano-5-methyl-4-phenyl)hexyl]-4-[2-(4-fluorophenoxy)butyl]piperazine]
> 16 µM	CC(C)C(C#N)(CCCN1CCN(CCOc2ncnc3ccccc23)CC1)c1ccccc1 (stereo not drawn) [Example 105, 1-[(4-Cyano-5-methyl-4-phenyl)hexyl]-4-[2-(4-quinazolinyloxy)ethyl]piperazine]
7 µM	CC(C)C(C#N)(CCCN1CCN(CCOc2ccc(-c3cccnc3)cc2)CC1)c1ccccc1 (stereo not drawn) [Example 106, 1-[(4-Cyano-5-methyl-4-phenyl)hexyl]-4-{2-[4-(3-pyridyl)phenoxy]ethyl}piperazine]
4.1 µM	CC(C)C(C#N)(CCCN1CCN(CCOc2cccc(-c3cccnc3)c2)CC1)c1ccccc1 (stereo not drawn) [Example 107, 1-[(4-Cyano-5-methyl-4-phenyl)hexyl]-4-{2-[3-(3-pyridyl)phenoxy]ethyl}piperazine]
3.3 µM	CC(C)C(C#N)(CCCN1CCN(CCOc2ccc(Br)cc2)CC1)c1ccccc1 (stereo not drawn) [Example 108, 1-[(4-Cyano-5-methyl-4-phenyl)hexyl]-4-[2-(4-bromophenoxy)ethyl]piperazine]
3.3 µM	CC(C)C(C#N)(CCCN1CCN(CCOc2cccc(Br)c2)CC1)c1ccccc1 (stereo not drawn) [Example 109, 1-[(4-Cyano-5-methyl-4-phenyl)hexyl]-4-[2-(3-bromophenoxy)ethyl]piperazine]
3.5 µM	CC(C)C(C#N)(CCCN1CCN(CCOc2ccccc2Br)CC1)c1ccccc1 (stereo not drawn) [Example 110, 1-[(4-Cyano-5-methyl-4-phenyl)hexyl]-4-[2-(2-bromophenoxy)ethyl]piperazine]
> 16 µM	CC(C)C(C#N)(CCCN1CCN(CCOc2ccc(-n3ccnc3)cc2)CC1)c1ccccc1 (stereo not drawn) [Example 111, 1-[(4-Cyano-5-methyl-4-phenyl)hexyl]-4-{2-[4-(imidazol-1-yl)phenoxy]ethyl}piperazine]
